Where a name gives a salt, the structure may show the parent alone.
target: human ENPP2 (Homo sapiens (Human), UniProt Q13822); experiment: Measurement of human ENPP2 inhibitory activity; assay type: biochemical; details: 1 μM test compound; 16:0-LPC substrate, 37° C., 24 hours; read-out: ENPP2 inhibition rate(%) (1 μM)
Experimental: 10 μL of a test compound solution (10% dimethyl sulfoxide) at each concentration and 40 μL of a 5 μg/mL human ENPP2 solution (buffer A: 100 mmol/L Tris-HCl (pH 9.0), 500 mmol/L NaCl, 5 mmol/L MgCl2, 0.05% Triton X-100) were mixed, 50 μL of a 2 mmol/L 16:0-lysophosphatidylcholine (LPC) solution (buffer A) was further added to react at 37° C. for 24 hours. Subsequently, to 10 μL of the reaction solution was added 90 μL of a measurement buffer (0.5 mmol/L aminoantipyrine, 0.3 mmol/L N-ethyl-N-(2-hydroxy-3-sulfopropyl)-3-methylaniline, 1 U/mL peroxidase, 3 U/mL choline oxidase, 100 mmol/L Tris-HCl (pH 8.5), 5 mmol/L CaCl2) to react at 37° C. for 20 minutes, and spectrophotometric determination was performed at 555 nm.
Using a standard curve, a choline production amount (enzyme activity) in each test compound was calculated, and the inhibitory activity rate of each test compound was calculated, wherein the enzyme activity in a positive control to which a test compound is not added, was a 0% inhibition rate, and the enzyme activity in a negative control to which a test compound and human ENPP2 are not added, were 100% inhibition. Further, concerning the present compounds shown in Table 3, an IC50 value was calculated from inhibitory activity rate at each concentration.

| Structure (SMILES) | inhibition at 1 µM |
| --- | --- |
| CC1(C)[C@@H](CC(=O)N2CCc3c(n(Cc4ccc(F)cc4)c4ncccc34)C2)CC[C@@]1(C)C(=O)O [Example 31(162), (1R,3R)-3-{2-[9-(4-fluorobenzyl)-5,6,8,9-tetrahydro-7H-pyrido[4′,3′:4,5]pyrrolo[2,3-b]pyridin-7-yl]-2-oxoethyl}-1,2,2-trimethylcyclopentanecarboxylic acid] | 99.5% |
| O=C(CC12CCC(C(=O)O)(CC1)CC2)N1CCc2c(n(Cc3cc(F)c(F)cc3F)c3ncccc23)C1 [Example 31(129), 4-{2-oxo-2-[9-(2,4,5-trifluorobenzyl)-5,6,8,9-tetrahydro-7H-pyrido[4′,3′:4,5]pyrrolo[2,3-b]pyridin-7-yl]ethyl}bicyclo[2.2.2]octane-1-carboxylic acid] | 99.8% |
| COc1cc(CC(=O)N2CCc3c(n(Cc4cc(F)c(F)cc4F)c4ncccc34)C2)ccc1C(=O)O [Example 51(24), 2-methoxy-4-{2-oxo-2-[9-(2,4,5-trifluorobenzyl)-5,6,8,9-tetrahydro-7H-pyrido[4′,3′:4,5]pyrrolo[2,3-b]pyridin-7-yl]ethyl}benzoic acid] | 97.5% |
| O=C(CC12CCC(C(=O)O)(CC1)CC2)N1CCc2c(n(Cc3ccc(F)c(F)c3)c3ncccc23)C1 [Example 31(170), 4-{2-[9-(3,4-difluorobenzyl)-5,6,8,9-tetrahydro-7H-pyrido[4′,3′:4,5]pyrrolo[2,3-b]pyridin-7-yl]-2-oxoethyl}bicyclo[2.2.2]octane-1-carboxylic acid] | 98% |
| CC1(C)[C@@H](CC(=O)N2CCc3c(n(Cc4ccc(Cl)cc4F)c4ncccc34)C2)CC[C@@]1(C)C(=O)O [Example 31(160), (1R,3R)-3-{2-[9-(4-chloro-2-fluorobenzyl)-5,6,8,9-tetrahydro-7H-pyrido[4′,3′:4,5]pyrrolo[2,3-b]pyridin-7-yl]-2-oxoethyl}-1,2,2-trimethylcyclopentanecarboxylic acid] | 99.5% |
| COc1cc(CC(=O)N2CCc3c(n(Cc4cc(F)cc(F)c4)c4ncccc34)C2)ccc1C(=O)O [Example 51(23), 4-{2-[9-(3,5-difluorobenzyl)-5,6,8,9-tetrahydro-7H-pyrido[4′,3′:4,5]pyrrolo[2,3-b]pyridin-7-yl]-2-oxoethyl}-2-methoxybenzoic acid] | 96.2% |
| CC(C)(CCC(=O)N1CCc2c(n(Cc3ccccc3)c3ccccc23)C1)CC(=O)O [Example 15, 6-(9-benzyl-1,3,4,9-tetrahydro-2H-beta-carbolin-2-yl)-3,3-dimethyl-6-oxohexanoic acid] | 84.1% |
| CC1CN(C(=O)CCCC(C)(C)C(=O)O)Cc2c1c1cccnc1n2Cc1cccc(F)c1 (centres unmarked) [Example 23, 6-[9-(3-fluorobenzyl)-5-methyl-5,6,8,9-tetrahydro-7H-pyrido[4′,3′:4,5]pyrrolo[2,3-b]pyridin-7-yl]-2,2-dimethyl-6-oxohexanoic acid] | 96.2% |

Second part, the compound after the results:

| inhibition at 1 µM | Structure (SMILES) |
| --- | --- |
| 69.3% | O=C(O)CCCCC(=O)N1CCc2c(n(Cc3cccs3)c3ncccc23)C1 [Example 9(59), 6-oxo-6-[9-(2-thienylmethyl)-5,6,8,9-tetrahydro-7H-pyrido[4′,3′:4,5]pyrrolo[2,3-b]pyridin-7-yl]hexanoic acid] |
| 98.8% | O=C(CC12CCC(C(=O)O)(CC1)C2)N1CCc2c(n(Cc3ccc(F)cc3)c3ncccc23)C1 [Example 31(188), 4-{2-[9-(4-fluorobenzyl)-5,6,8,9-tetrahydro-7H-pyrido[4′,3′:4,5]pyrrolo[2,3-b]pyridin-7-yl]-2-oxoethyl}bicyclo[2.2.1]heptane-1-carboxylic acid] |
| 98.7% | O=C(CC12CCC(C(=O)O)(CC1)C2)N1CCc2c(n(Cc3cccc(F)c3)c3ncccc23)C1 [Example 31(181), 4-{2-[9-(3-fluorobenzyl)-5,6,8,9-tetrahydro-7H-pyrido[4′,3′:4,5]pyrrolo[2,3-b]pyridin-7-yl]-2-oxoethyl}bicyclo[2.2.1]heptane-1-carboxylic acid] |
| 67.7% | COC(=O)CCCCC(=O)N1CCc2c(n(CCCc3ccccc3)c3ccccc23)C1 [Example 2, methyl 6-oxo-6-[9-(3-phenylpropyl)-1,3,4,9-tetrahydro-2H-beta-carbolin-2-yl]hexanoate] |
| 98.2% | O=C(C[C@H]1CC[C@H](C(=O)O)CC1)N1CCc2c(n(Cc3ccc(F)cc3F)c3ncccc23)C1 [Example 31(32), trans-4-{2-[9-(2,4-difluorobenzyl)-5,6,8,9-tetrahydro-7H-pyrido[4′,3′:4,5]pyrrolo[2,3-b]pyridin-7-yl]-2-oxoethyl}cyclohexanecarboxylic acid] |
| 76.6% | O=C(O)CCCCC(=O)N1CCc2c(n(CCOc3ccccc3)c3ncccc23)C1 [Example 9(28), 6-oxo-6-[9-(2-phenoxyethyl)-5,6,8,9-tetrahydro-7H-pyrido[4′,3′:4,5]pyrrolo[2,3-b]pyridin-7-yl]hexanoic acid] |
| 95.1% | O=C(O)CCCCCC(=O)N1CCc2c(n(CCCc3ccc(F)cc3)c3ccccc23)C1 [Example 3(19), 7-{9-[3-(4-fluorophenyl)propyl]-1,3,4,9-tetrahydro-2H-beta-carbolin-2-yl}-7-oxoheptanoic acid] |
| 99.3% | O=C(CC12CCC(C(=O)O)(CC1)C2)N1CCc2c(n(Cc3ccc(Cl)cc3)c3ncccc23)C1 [Example 31(189), 4-{2-[9-(4-chlorobenzyl)-5,6,8,9-tetrahydro-7H-pyrido[4′,3′:4,5]pyrrolo[2,3-b]pyridin-7-yl]-2-oxoethyl}bicyclo[2.2.1]heptane-1-carboxylic acid] |

same assay, conditions: 16:0-LPC substrate, 37° C., 24 hours

| Structure (SMILES) | IC50 |
| --- | --- |
| O=C(CC12CCC(C(=O)O)(CC1)CC2)N1CCc2c(n(Cc3cccc(F)c3)c3ncccc23)C1 [Example 31(127), 4-{2-[9-(3-fluorobenzyl)-5,6,8,9-tetrahydro-7H-pyrido[4′,3′:4,5]pyrrolo[2,3-b]pyridin-7-yl]-2-oxoethyl}bicyclo[2.2.2]octane-1-carboxylic acid] | 11 nM |
| C[C@@H]1CN(CC(=O)N2CCc3c(n(Cc4ccc(Cl)s4)c4ccccc34)C2)C[C@H](C)N1CC(=O)O [Example 35(122), rel-[(2R,6S)-4-(2-{9-[(5-chloro-2-thienyl)methyl]-1,3,4,9-tetrahydro-2H-beta-carbolin-2-yl}-2-oxoethyl)-2,6-dimethyl-1-piperazinyl]acetic acid dihydrochloride] | 35 nM |

More lines, now with the values ahead:

| IC50 | Structure (SMILES) |
| --- | --- |
| 91 nM | O=C(O)CCCCC(=O)N1CCc2c(n(Cc3cccc(F)c3)c3ncccc23)C1 [Example 9, 6-[9-(3-fluorobenzyl)-5,6,8,9-tetrahydro-7H-pyrido[4′,3′:4,5]pyrrolo[2,3-b]pyridin-7-yl]-6-oxohexanoic acid] |
| 25 nM | C[C@]1(C(=O)O)CC[C@H](CC(=O)N2CCc3c(n(Cc4ccc(Cl)cc4)c4ncccc34)C2)CC1 [Example 48(9), trans-4-{2-[9-(4-chlorobenzyl)-5,6,8,9-tetrahydro-7H-pyrido[4′,3′:4,5]pyrrolo[2,3-b]pyridin-7-yl]-2-oxoethyl}-1-methylcyclohexanecarboxylic acid] |
| 6.7 nM | CC(C)(CCCC(=O)N1CCc2c(n(Cc3ccc(F)cc3F)c3ncccc23)C1)C(=O)O [Example 12(97), 6-[9-(2,4-difluorobenzyl)-5,6,8,9-tetrahydro-7H-pyrido[4′,3′:4,5]pyrrolo[2,3-b]pyridin-7-yl]-2,2-dimethyl-6-oxohexanoic acid] |
| 11 nM | O=C(CC12CCC(C(=O)O)(CC1)CC2)N1CCc2c(n(Cc3ccc(Cl)cc3)c3ncccc23)C1 [Example 31(140), 4-{2-[9-(4-chlorobenzyl)-5,6,8,9-tetrahydro-7H-pyrido[4′,3′:4,5]pyrrolo[2,3-b]pyridin-7-yl]-2-oxoethyl}bicyclo[2.2.2]octane-1-carboxylic acid] |
| 26 nM | C[C@]1(C(=O)O)CC[C@H](CC(=O)N2CCc3c(n(Cc4ccc(F)cc4)c4ncccc34)C2)CC1 [Example 48(8), trans-4-{2-[9-(4-fluorobenzyl)-5,6,8,9-tetrahydro-7H-pyrido[4′,3′:4,5]pyrrolo[2,3-b]pyridin-7-yl]-2-oxoethyl}-1-methylcyclohexanecarboxylic acid] |
| 16 nM | O=C(O)CCCCC(=O)N1CCc2c(n(CCC3CCCCC3)c3ncccc23)C1 [Example 9(2), 6-[9-(2-cyclohexylethyl)-5,6,8,9-tetrahydro-7H-pyrido[4′,3′:4,5]pyrrolo[2,3-b]pyridin-7-yl]-6-oxohexanoic acid] |
| 110 nM | O=C(O)C1CCCN(CC(=O)N2CCc3c(n(Cc4cccc(F)c4)c4ncccc34)C2)C1 (centres unmarked) [Example 35(2), 1-{2-[9-(3-fluorobenzyl)-5,6,8,9-tetrahydro-7H-pyrido[4′,3′:4,5]pyrrolo[2,3-b]pyridin-7-yl]-2-oxoethyl}-3-piperidinecarboxylic acid] |
| 83 nM | CC(C)(CNCC(=O)N1CCc2c(n(Cc3cccc(F)c3)c3ncccc23)C1)C(=O)O [Example 20, 3-({2-[9-(3-fluorobenzyl)-5,6,8,9-tetrahydro-7H-pyrido[4′,3′:4,5]pyrrolo[2,3-b]pyridin-7-yl]-2-oxoethyl}amino)-2,2-dimethylpropanoic acid hydrochloride] |
